Data as given in US9365589B2, “C5, C6 oxacyclic-fused thiazine dioxide compounds as BACE inhibitors, compositions, and their use” (Merck Sharp & Dohme Corp., priority 2012, dated 2016).
Read-outs that look alike come from different tables or passages of the source.

Columns and labels:
[1] = target: soluble human BACE1 catalytic domain (Homo sapiens (Human), UniProt P56817); test: BACE1 HTRF FRET Assay; assay type: biochemical; settings: Ki calculated from IC50 using the Cheng-Prusoff equation; QSY7-APPswe-Eu substrate, pH 5.0
Sequence of soluble human BACE1 catalytic domain (P56817 75-416): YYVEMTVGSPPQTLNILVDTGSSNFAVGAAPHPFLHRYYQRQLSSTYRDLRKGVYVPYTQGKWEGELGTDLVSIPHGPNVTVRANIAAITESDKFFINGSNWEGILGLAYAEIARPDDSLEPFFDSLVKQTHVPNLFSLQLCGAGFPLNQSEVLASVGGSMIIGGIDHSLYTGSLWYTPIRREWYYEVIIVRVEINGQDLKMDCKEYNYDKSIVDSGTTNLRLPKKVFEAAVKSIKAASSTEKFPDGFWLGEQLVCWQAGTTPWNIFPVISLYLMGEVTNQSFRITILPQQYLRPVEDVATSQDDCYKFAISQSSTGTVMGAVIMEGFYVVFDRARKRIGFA
From the text: A homogeneous time-resolved FRET assay can be used to determine IC50 values for inhibitors of the soluble human BACE1 catalytic domain. This assay monitors the increase of 620 nm fluorescence that resulted from BACE1 cleavage of an APPswedish APP^swe mutant peptide FRET substrate (QSY7-[…]-Europium-amide). This substrate contains an N-terminal QSY7 moiety that serves as a quencher of the C-terminal Europium fluorophore (620 nm Em). In the absence of enzyme activity, 620 nm fluorescence is low in the assay and increased linearly over 3 hours in the presence of uninhibited BACE1 enzyme Inhibition of BACE1 cleavage of the QSY7-APP^swe-Eu substrate by inhibitors is manifested as a suppression of 620 nm fluorescence.
Reactions are initiated by addition of 10 μl of 600 nM QSY7-APP^swe-Eu substrate (200 nM final) to give a final reaction volume of 30 μl in a 384 well Nunc HTRF plate. The reactions are incubated at 30° C. for 1.5 hours. The 620 nm fluorescence is then read on a Rubystar HTRF plate reader (BMG Labtechnologies) using a 50 millisecond delay followed by a 400 millisecond acquisition time window Inhibitor IC50 values are derived from non-linear regression analysis of concentration response curves.

[2] = target: purified human autoBACE-2 (Homo sapiens (Human), UniProt Q9Y5Z0); test: BACE-2 Assay (BACE-HTRF assay); assay type: biochemical
Sequence of purified human autoBACE-2 (Q9Y5Z0 63-473 limits assumed): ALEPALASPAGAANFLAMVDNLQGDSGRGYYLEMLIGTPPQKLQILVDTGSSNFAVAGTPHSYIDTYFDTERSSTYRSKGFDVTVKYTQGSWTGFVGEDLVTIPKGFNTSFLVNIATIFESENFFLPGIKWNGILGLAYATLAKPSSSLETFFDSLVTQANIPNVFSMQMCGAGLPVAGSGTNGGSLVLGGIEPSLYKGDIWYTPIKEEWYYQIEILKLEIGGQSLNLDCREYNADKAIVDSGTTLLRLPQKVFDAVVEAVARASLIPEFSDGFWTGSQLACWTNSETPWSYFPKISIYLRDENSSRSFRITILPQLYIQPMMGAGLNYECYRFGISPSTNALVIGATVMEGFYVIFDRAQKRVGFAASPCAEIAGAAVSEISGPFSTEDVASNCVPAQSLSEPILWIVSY
Procedure: DMSO is present at 5% final concentration in the assay. Following laser excitation of sample wells at 320 nm, the fluorescence signal at 620 nm is collected for 400 ms following a 50 μs delay on a RUBYstar HTRF plate reader (BMG Labtechnologies). Raw RFU data is normalized to maximum (1.0 nM BACE/DMSO) and minimum (no enzyme/DMSO) RFU values. […] The Ki values are calculated from the IC50 using the Cheng-Prusoff equation.

Row | Compound | Ki [1] | Ki ([2]; BACE2 Ki (nM)) | Ki ([2]; read-out: BACE2 Ki)
1 | CC1(C)C(=N)N[C@@]2(c3cc(NC(=O)c4ccc(F)cn4)ccc3F)COC(CF)[C@H]2S1(=O)=O (single isomer, unassigned) [Example 4a] | 3 nM | 1 nM | –
2 | CC1(C)C(=N)N[C@@]2(c3cc(NC(=O)c4ccc(F)cn4)ccc3F)COC(CF)[C@H]2S1(=O)=O (single isomer, unassigned) [Example 4b] | 42 nM | 18 nM | –
3 | COc1cnc(C(=O)Nc2ccc(F)c([C@]34COC(CF)[C@H]3S(=O)(=O)C(C)(C)C(=N)N4)c2)cn1 (single isomer, unassigned) [Example 4e] | – | 11 nM | –
4 | COc1cnc(C(=O)Nc2ccc(F)c([C@]34COC(CF)[C@H]3S(=O)(=O)C(C)(C)C(=N)N4)c2)cn1 (single isomer, unassigned) [Example 4h] | – | 476 nM | –
5 | CC1(C)C(=N)N[C@@]2(c3cc(NC(=O)c4ccc(F)cn4)ccc3F)COC[C@H]2S1(=O)=O [Example 1a] | 3.5 nM | – | 1 nM
6 | CC1(C)C(=N)N[C@@]2(c3cc(NC(=O)c4ccc(C(F)(F)F)cn4)ccc3F)COC[C@H]2S1(=O)=O [Example 1aa] | 3 nM | – | 8 nM
7 | CC1(C)C(=N)N[C@@]2(c3cc(NC(=O)c4ccc(Cl)cn4)ccc3F)COC[C@H]2S1(=O)=O [Example 1b] | 2.5 nM | – | 1 nM
8 | COc1ccc(C(=O)Nc2ccc(F)c([C@]34COC[C@H]3S(=O)(=O)C(C)(C)C(=N)N4)c2)nc1 [Example 1c] | 5.8 nM | – | 3 nM
9 | COc1cnc(C(=O)Nc2ccc(F)c([C@]34COC[C@H]3S(=O)(=O)C(C)(C)C(=N)N4)c2)cn1 [Example 1d] | 6.2 nM | – | 5 nM
10 | Cn1ccc(C(=O)Nc2ccc(F)c([C@]34COC[C@H]3S(=O)(=O)C(C)(C)C(=N)N4)c2)n1 [Example 1e] | 13 nM | – | 2 nM
11 | Cc1cc(C(=O)Nc2ccc(F)c([C@]34COC[C@H]3S(=O)(=O)C(C)(C)C(=N)N4)c2)no1 [Example 1f] | 201 nM | – | 24 nM
12 | CC1(C)C(=N)N[C@@]2(c3cc(NC(=O)c4cn5ccsc5n4)ccc3F)COC[C@H]2S1(=O)=O [Example 1g] | 25 nM | – | 3 nM
13 | CC1(C)C(=N)N[C@@]2(c3cc(NC(=O)c4cnc(OCCF)cn4)ccc3F)COC[C@H]2S1(=O)=O [Example 1h] | 7 nM | – | 18 nM
14 | Cc1cc(C(=O)Nc2ccc(F)c([C@]34COC[C@H]3S(=O)(=O)C(C)(C)C(=N)N4)c2)on1 [Example 1i] | 559 nM | – | 93 nM
15 | Cn1cc(C(=O)Nc2ccc(F)c([C@]34COC[C@H]3S(=O)(=O)C(C)(C)C(=N)N4)c2)c(C(F)(F)F)n1 [Example 1j] | 1100 nM | – | 309 nM
16 | CC1(C)C(=N)N[C@@]2(c3cc(NC(=O)c4ncc(Cl)cc4F)ccc3F)COC[C@H]2S1(=O)=O [Example 1k] | 3 nM | – | 1 nM
17 | Cc1nc(C(=O)Nc2ccc(F)c([C@]34COC[C@H]3S(=O)(=O)C(C)(C)C(=N)N4)c2)c(C)o1 [Example 1l] | 6 nM | – | 1 nM
18 | COCC(=O)Nc1ccc(F)c([C@]23COC[C@H]2S(=O)(=O)C(C)(C)C(=N)N3)c1 [Example 1m] | 74 nM | – | 5 nM

Row | Compound | Ki [1] | Ki ([2]; BACE2 Ki (nM)) | Ki ([2]; read-out: BACE2 Ki)
19 | CC1(C)C(=N)N[C@@]2(c3cc(NC(=O)C(F)F)ccc3F)COC[C@H]2S1(=O)=O [Example 1n] | 258 nM | – | 33 nM
20 | CO[C@@H](C)C(=O)Nc1ccc(F)c([C@]23COC[C@H]2S(=O)(=O)C(C)(C)C(=N)N3)c1 [Example 1o] | 213 nM | – | 42 nM
21 | CO[C@H](C)C(=O)Nc1ccc(F)c([C@]23COC[C@H]2S(=O)(=O)C(C)(C)C(=N)N3)c1 [Example 1p] | 151 nM | – | 16 nM
22 | CC1(C)C(=N)N[C@@]2(c3cc(NC(=O)c4cnc(C(F)(F)F)cn4)ccc3F)COC[C@H]2S1(=O)=O [Example 1q] | 13 nM | – | 35 nM
23 | CC1(C)C(=N)N[C@@]2(c3cc(NC(=O)c4ccc(C#N)cn4)ccc3F)COC[C@H]2S1(=O)=O [Example 1r] | 1 nM | – | 1 nM
24 | COc1cnc(C(=O)Nc2ccc(F)c([C@]34COC[C@H]3S(=O)(=O)C(C)(C)C(=N)N4)c2)c(C)c1 [Example 1s] | 4 nM | – | 1 nM
25 | COc1cnc(C(=O)Nc2ccc(F)c([C@]34COC[C@H]3S(=O)(=O)C(C)(C)C(=N)N4)c2)c(C)n1 [Example 1t] | 10 nM | – | 6 nM
26 | Cc1cc(C#N)cnc1C(=O)Nc1ccc(F)c([C@]23COC[C@H]2S(=O)(=O)C(C)(C)C(=N)N3)c1 [Example 1u] | 1 nM | – | 1 nM
27 | CC1(C)C(=N)N[C@@]2(c3cc(NC(=O)c4cnsn4)ccc3F)COC[C@H]2S1(=O)=O [Example 1v] | 8 nM | – | 1 nM
28 | C#CCOc1cnc(C(=O)Nc2ccc(F)c([C@]34COC[C@H]3S(=O)(=O)C(C)(C)C(=N)N4)c2)cn1 [Example 1w] | 1 nM | – | 2 nM
29 | CC1(C)C(=N)N[C@@]2(c3cc(NC(=O)c4ccc(OCF)cn4)ccc3F)COC[C@H]2S1(=O)=O [Example 1x] | 3 nM | – | 2 nM
30 | C#CCOc1ccc(C(=O)Nc2ccc(F)c([C@]34COC[C@H]3S(=O)(=O)C(C)(C)C(=N)N4)c2)nc1 [Example 1y] | 1 nM | – | 7 nM
31 | CC1(C)C(=N)N[C@@]2(c3cc(NC(=O)c4ccn(C(F)F)n4)ccc3F)COC[C@H]2S1(=O)=O [Example 1z] | 1 nM | – | 1 nM
32 | C[C@@]1(c2ccc(F)cc2)C(=N)N[C@@]2(c3cc(NC(=O)c4ccc(F)cn4)ccc3F)COC[C@H]2S1(=O)=O [Example 8a] | 84 nM | 9 nM | –
33 | C[C@]1(c2ccc(F)cc2)C(=N)N[C@@]2(c3cc(NC(=O)c4ccc(F)cn4)ccc3F)COC[C@H]2S1(=O)=O [Example 8b] | 1 nM | 1 nM | –
34 | C[C@@]1(C2CC2)C(=N)N[C@@]2(c3cc(NC(=O)c4ccc(F)cn4)ccc3F)COC[C@H]2S1(=O)=O [Example 13a] | 39 nM | – | 6 nM
35 | C[C@]1(C2CC2)C(=N)N[C@@]2(c3cc(NC(=O)c4ccc(F)cn4)ccc3F)COC[C@H]2S1(=O)=O [Example 13b] | 62 nM | – | 11 nM
